# Data: US20070043111A1, “Use of ifenprodril in the treatment of pain” (priority 2003, published 2007)
# How the values were obtained:
# [1] = system: intraplantar carrageenan-induced paw withdrawal latency; assay: intraplantar carrageenan-induced paw withdrawal latency in the rat; assay type: in vivo
# Description: More particularly, FIG. 1 is a graph showing the effect of (−) threo-ifenprodil when given intranasally or intraperitoneally at 10 and 30 mg/kg on the % change of pressure-induced paw withdrawal latency on the intraplantar carrageenan administered paw in the rat (250 g).
# FIG. 2 is a graph showing the effect of (−) threo-ifenprodil when given intravenously at 0.1 to 3 mg/kg on the % change of pressure-induced paw withdrawal latency on the intraplantar carrageenan administered paw in the rat.
# [2] = system: alpha-1 adrenergic receptor; details: Chenard et al., 1991; cited from earlier work
smiles,measurement,setting,value
CC(C(O)c1ccc(O)cc1)N1CCC(Cc2ccccc2)CC1 (racemic) [erythro racemate of ifenprodil],intranasal route compared with intraperitoneal route,[1]; FIG. 1,at least equivalent if not superior to the intraperitoneal route
same,analgesic effect on pressure-induced paw withdrawal latency,"[1]; intranasal, 2.5 mg/rat and 7.5 mg/rat, FIG. 1",markedly analgesic
same,analgesic effect on pressure-induced paw withdrawal latency,"[1]; intraperitoneal, 10 mg/kg and 30 mg/kg, FIG. 1",markedly analgesic
"CC(C(O)c1ccc(O)cc1)N1CCC(Cc2ccccc2)CC1 (single isomer, unassigned; (-)) [(−) Threo-ifenprodil]",efficacy on pressure-induced paw withdrawal latency,"[1]; intravenous, 0.1, 0.3, 1 and 3 mg/kg, FIG. 2",excellent efficacy
"CC(C(O)c1ccc(O)cc1)N1CCC(Cc2ccccc2)CC1 (centres unmarked) [Ifenprodil, 2-(4-benzylpiperidino)-1-(4-hydroxyphenyl)-1-propanol]",alpha-1 adrenergic receptor binding properties,[2],potent
